Common to all, as to experiment: NCI tumour cell line growth inhibition, 48 h
For experiment [1], the system named is U251 CNS.
Experiment [2] has as its system A498 renal.
Experiment [3] concerns TK-10 renal.
The subject of experiment [4] is CAKI-1 renal.
Experiment [5] relates to SK-MEL-2 melanoma.
In experiment [6] the test system is UACC-62 melanoma.
Experiment [7] has as its system SF-268 CNS.
The test system of experiment [8] is HT29 colon.
The test system of experiment [9] is OVCAR-8 ovarian.
In experiment [10] the test system is 786-0 renal.
The test system of experiment [11] is SF-539 CNS.

The source of these data is PubChem BioAssay (NCI).

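Five compound concentrations were applied to cells in 96-well plates for 48 hours; endpoints were derived by simple linear interpolation of the resulting dose-response curve. Here, GI50 denotes the concentration required for 50% inhibition of growth. The concentration for full growth arrest is given as TGI.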

With `CO[C@H]1/C=C(/C)CCC[C@H](C)[C@H](O)[C@@H](C)C(=O)C(C)(C)[C@@H](O)CC(=O)O[C@@H]1/C(C)=C/c1csc(C)n1`, the GI50 in experiment [1] is 0.0143 µM; in experiment [2], 0.0234 µM; in experiment [3], 0.0366 µM; in experiment [4], 0.0238 µM; in experiment [5], 0.0186 µM; in [6], 0.0287 µM. Moreover, the GI50 in experiment [7] was 0.0346 µM; in [8], less than 0.01 µM; in experiment [9], 0.0277 µM. The TGI in experiment [1], in [2], in experiment [3], in experiment [4], in [6] and in experiment [7] was greater than 100 µM each time. For the same molecule, the TGI in experiment [8] is 0.525 µM; in experiment [9] it was greater than 100 µM.
Turning to `CCC1(CC)C(=O)NN(C(=O)c2ccccc2)C1=O`, the TGI in experiment [1], in experiment [3], in [4], in experiment [10], in experiment [5] and in experiment [6] was greater than 100 µM in each case. Besides, the TGI in experiment [7], in [8] and in experiment [9] was greater than 100 µM each time.
Regarding `CS(=O)c1ncc2c(n1)-c1ccccc1OC2` (centres undefined), the TGI in experiment [1], in experiment [3], in experiment [4], in experiment [11], in experiment [10] and in experiment [5] was greater than 100 µM throughout. In addition, the TGI in [6], in experiment [7], in [8] and in experiment [9] was greater than 100 µM throughout.
On to `CC1CCC(C(=O)O)(C(Br)C(=O)O)CC1` (centres undefined), for which the TGI in experiment [1], in [3], in experiment [4], in experiment [10], in experiment [5] and in experiment [6] was greater than 100 µM throughout. The TGI in experiment [8] and in [9] was greater than 100 µM in each case.
For the molecule `COc1cc(NS(C)(=O)=O)ccc1Nc1cc(C)[nH]c2ccc3nccc3c12`, the TGI in experiment [1], in [2], in [3], in [4], in experiment [10] and in experiment [5] was greater than 100 µM each time. Further, the TGI in experiment [6], in experiment [7], in experiment [8] and in [9] was greater than 100 µM each time.
As for `CCCC(=O)OC1CC(n2cc(F)c(=O)[nH]c2=O)OC1COP(=O)(OCC(Cl)(Cl)Cl)OCC(Cl)(Cl)Cl` (centres undefined), the TGI in experiment [1] was greater than 78.8 µM; in experiment [3] it was greater than 100 µM; in experiment [4], greater than 31.6 µM; in [10] it was greater than 100 µM; in experiment [5], greater than 100 µM; in [6], greater than 100 µM. Further, the TGI in experiment [7] is greater than 31.6 µM; in experiment [8], 41.3 µM; in [9], greater than 100 µM.
In the case of `CCOC(=O)Cn1c(=O)c2nc(SC)sc2n(-c2ccccc2)c1=O`, the TGI in experiment [1], in experiment [2], in [3], in experiment [10], in experiment [5] and in [6] was greater than 100 µM each time. Further, the TGI in [8] and in experiment [9] was greater than 100 µM each time.
Turning to `CS(=O)(=O)OCC(CCl)(CCl)CCl`, the TGI in [1], in [2], in [3], in experiment [7], in experiment [8] and in experiment [9] was greater than 100 µM throughout.
Take `N#Cc1c(-c2ccccc2)/c(=C\Nc2ccc(F)cc2)c(=O)n2c1nc1ccccc12`: the TGI in [1] was greater than 100 µM; in experiment [2], greater than 100 µM; in experiment [3] it was greater than 100 µM; in experiment [4], 39.9 µM; in experiment [11] it was 68.4 µM; in experiment [10] it was 68.3 µM. Moreover, the TGI in [5], in experiment [7] and in [9] was greater than 100 µM in each case.
As to `CCN(CC)CCn1c(=O)c2cccnc2n2c3c(=O)n(C)c(=O)n(C)c3nc12`, the TGI in [1] is greater than 100 µM; in experiment [3], 57.4 µM; in experiment [4] it was greater than 100 µM; in experiment [11], greater than 100 µM; in experiment [10] it was greater than 100 µM; in experiment [5], greater than 100 µM. In addition, the TGI in experiment [6], in experiment [7], in experiment [8] and in [9] was greater than 100 µM throughout.
As for `CCOC(=O)C1=C(C)C2C=C(c3cccs3)CC(c3ccc(Cl)cc3)=C2OC1=O` (centres undefined), the TGI was greater than 100 µM in [1]; greater than 100 µM in [2]; greater than 100 µM in experiment [3]; greater than 100 µM in experiment [4]; 67.1 µM in [10]; greater than 100 µM in experiment [5]. The TGI in experiment [6], in experiment [7], in experiment [8] and in experiment [9] was greater than 100 µM each time.
In the case of `COc1ccc2c(C)cc(=O)oc2c1OC`, the TGI in experiment [1], in [2], in experiment [3], in [10], in [5] and in experiment [6] was greater than 100 µM each time. Moreover, the TGI in experiment [7], in [8] and in experiment [9] was greater than 100 µM throughout.
As to `CN(C)c1ccc(S(=O)Nc2ccccc2)cc1` (centres undefined), the TGI in experiment [1] was 62.9 µM; in experiment [3], greater than 100 µM; in experiment [11], greater than 100 µM; in experiment [10], greater than 100 µM; in experiment [5] it was 89.1 µM; in experiment [6] it was 81.6 µM. Moreover, the TGI in experiment [7], in [8] and in [9] was greater than 100 µM throughout.
For `OCCc1ccsc1-c1sc(-c2cc(CCO)c(-c3sccc3CCO)s2)cc1CCO`, the TGI in [1] turned out to be 49 µM; in experiment [2], 40.3 µM; in experiment [3] it was 44 µM; in [4], 44.3 µM; in experiment [10], 29 µM; in [5], 29.5 µM. The values for the TGI in experiment [6], in [7] and in experiment [9] were 25.4 µM, 14 µM and 29.5 µM, respectively.
For `Cc1ccc(C(=C2Sc3ccccc3S2)C(=C2Sc3ccccc3S2)c2ccc(C)s2)s1`, the TGI in experiment [1], in [2], in [3], in [4], in experiment [10] and in experiment [5] was greater than 100 µM throughout. The TGI in [6], in experiment [7], in experiment [8] and in experiment [9] was greater than 100 µM in each case.
Take `COc1cccc2c1OC1(C=C2)Oc2ccccc2C(=O)N1C` (centres undefined): the TGI is greater than 100 µM in [1]; 57.4 µM in [2]; greater than 100 µM in [3]; greater than 100 µM in experiment [4]; greater than 100 µM in experiment [10]; greater than 100 µM in experiment [5]. The TGI in experiment [6] was greater than 100 µM; in [7] it was greater than 100 µM; in experiment [8] it was greater than 100 µM; in experiment [9], 54.4 µM.
As to `COc1ccc(NC(=O)CC(=O)N2N=C(N3c4ccccc4Sc4ccccc43)CC2c2ccccc2)cc1` (centres undefined), the TGI in experiment [1], in experiment [3], in experiment [4], in [11], in [10] and in [5] was greater than 100 µM throughout. For the same molecule, the TGI in [6] is greater than 100 µM; in experiment [7] it was 82.9 µM; in experiment [8], greater than 100 µM; in experiment [9] it was greater than 100 µM.
Turning to `CCOC(=O)c1ccc(NCC#CCN2CCOCC2)cc1`, the TGI in [1], in experiment [2], in [11], in [10], in [5] and in [6] was greater than 100 µM throughout. Also, the TGI in [7] and in experiment [8] was greater than 100 µM each time.
On to `CCN(CCCN(CC)C(=O)Nc1c(C)cccc1C)C(=O)Nc1c(C)cccc1C`, for which the TGI in experiment [1], in experiment [2], in experiment [3], in experiment [4], in experiment [10] and in experiment [5] was greater than 100 µM throughout. The TGI in [6], in [7], in [8] and in experiment [9] was greater than 100 µM throughout.
As for `O=C(O)c1ccccc1CC1Cc2ccccc2C1=O` (centres undefined), the TGI in experiment [1], in experiment [3], in experiment [4], in experiment [11], in experiment [10] and in [5] was greater than 100 µM in each case. The TGI in experiment [6], in [7], in experiment [8] and in experiment [9] was greater than 100 µM in each case.
Regarding `O=C(O)CCC(=O)OC1N=C(c2ccccc2Cl)c2cc([N+](=O)[O-])ccc2NC1=O` (centres undefined), the TGI in experiment [1], in experiment [2], in experiment [3], in experiment [4], in [10] and in experiment [5] was greater than 100 µM each time. Further, the TGI in experiment [6], in experiment [7], in [8] and in [9] was greater than 100 µM in each case.
On to `COc1ccc(C2=N/C(=C\c3ccccc3)C(=O)O2)cc1`, for which the TGI in [1], in [3], in experiment [11], in [5], in experiment [7] and in [8] was greater than 100 µM in each case. In experiment [9], this molecule came in with a TGI greater than 100 µM.
Regarding `Cc1nc(N)c(N2CCN([N+](=O)[O-])CC2)c(=O)[nH]1`, the TGI in [1], in [2], in experiment [3], in experiment [11], in [10] and in [5] was greater than 100 µM each time. Further, the TGI in [7], in experiment [8] and in [9] was greater than 100 µM each time.
For `Oc1ccc([I+]c2ccccc2)cc1O`, the TGI was greater than 100 µM in experiment [1]; greater than 100 µM in experiment [2]; greater than 100 µM in experiment [3]; greater than 100 µM in experiment [4]; 91.2 µM in experiment [11]; greater than 100 µM in experiment [10]. Also, the TGI in [7], in experiment [8] and in experiment [9] was greater than 100 µM throughout.
On to `N#CC12C(=O)N=C(N)C1(C#N)C(c1ccco1)NC1=C2CCCC1` (centres undefined), for which the TGI in [1], in [2], in [3], in experiment [4], in experiment [10] and in [5] was greater than 100 µM each time. The TGI in experiment [6], in [7], in experiment [8] and in experiment [9] was greater than 100 µM in each case.
`CC1OC(OC2C(OC(=O)[C@]34CCC(C)(C)C[C@H]3C3=CC[C@@H]5[C@@]6(C)CC[C@H](OC7OC(C(=O)O)C(O)C(O)C7O)C(C)(C)[C@@H]6CC[C@@]5(C)[C@]3(C)C[C@H]4O)OCC(O)C2O)C(O)C(OC2OCC(O)(CO)C2O)C1OC1OCC(O)C(O)C1O` (some centres undefined): the TGI in experiment [1] was 21.4 µM; in experiment [2], 3.47 µM; in experiment [4] it was 20 µM; in [10], 24.7 µM; in [5], 20 µM; in experiment [6] it was 31 µM. Also, the TGI in experiment [7] was determined as 33.7 µM; in experiment [8], 12.1 µM; in experiment [9], 33.4 µM.
Take `CCN(CC)CCN(C(=Nc1ccccc1)N1CCOCC1)c1ccccc1`: the TGI in [1], in experiment [3], in experiment [4], in experiment [11], in experiment [10] and in experiment [5] was greater than 100 µM throughout. Further, the TGI in experiment [6], in experiment [7], in [8] and in experiment [9] was greater than 100 µM each time.
With `Cc1cc(C(=O)CCCCOc2ccc(C3=NCCO3)cc2)c(C)n1C`, the TGI was greater than 100 µM in experiment [1]; 86.8 µM in experiment [2]; greater than 100 µM in [3]; greater than 100 µM in [4]; greater than 100 µM in experiment [10]; greater than 100 µM in experiment [5]. Moreover, the TGI in experiment [7], in experiment [8] and in experiment [9] was greater than 100 µM each time.
